Source: ChEMBL document CHEMBL3639070, “19-nor-steroid derivatives with a 15Œ±,16Œ±-methylene group and a saturated 17,17-spirolactone ring, use thereof, and medicaments containing said derivatives” (2015)

Target: T1, Progesterone receptor (Homo sapiens, UniProt P06401)
T1 sequence (P06401 whole entry): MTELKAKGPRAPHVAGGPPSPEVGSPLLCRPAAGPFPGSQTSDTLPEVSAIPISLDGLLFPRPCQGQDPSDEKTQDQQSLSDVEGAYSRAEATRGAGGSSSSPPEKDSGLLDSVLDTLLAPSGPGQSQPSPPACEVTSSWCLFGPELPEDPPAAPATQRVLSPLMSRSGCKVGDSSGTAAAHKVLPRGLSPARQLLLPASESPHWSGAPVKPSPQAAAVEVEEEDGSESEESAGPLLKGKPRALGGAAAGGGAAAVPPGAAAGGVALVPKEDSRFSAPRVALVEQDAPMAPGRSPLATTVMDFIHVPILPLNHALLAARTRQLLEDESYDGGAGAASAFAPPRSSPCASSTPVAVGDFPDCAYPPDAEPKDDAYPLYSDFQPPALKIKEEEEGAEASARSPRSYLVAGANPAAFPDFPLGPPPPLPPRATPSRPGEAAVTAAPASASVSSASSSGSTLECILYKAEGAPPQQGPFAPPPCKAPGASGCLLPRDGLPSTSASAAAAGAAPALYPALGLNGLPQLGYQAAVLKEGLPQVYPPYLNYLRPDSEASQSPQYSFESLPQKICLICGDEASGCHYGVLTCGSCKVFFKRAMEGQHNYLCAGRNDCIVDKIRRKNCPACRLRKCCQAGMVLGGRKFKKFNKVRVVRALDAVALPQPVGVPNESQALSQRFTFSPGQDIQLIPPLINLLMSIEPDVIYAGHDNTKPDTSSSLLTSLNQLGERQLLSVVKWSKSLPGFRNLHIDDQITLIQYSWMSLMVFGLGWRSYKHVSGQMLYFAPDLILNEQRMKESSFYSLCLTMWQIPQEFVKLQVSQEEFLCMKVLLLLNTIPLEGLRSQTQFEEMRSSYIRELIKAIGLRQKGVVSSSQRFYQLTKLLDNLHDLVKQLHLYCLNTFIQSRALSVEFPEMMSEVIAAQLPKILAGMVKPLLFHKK
Assay: Binding Assay: Using cytosol from progesterone receptor-expressing insect cells (Hi5), competitive binding to the progesterone receptor was determined from the ability to displace 3H-progesterone as reference substance from the receptor.

C[C@]12CCC3C4CCC(=O)C=C4[C@@H]4C[C@@H]4C3C1C1CC1[C@@]21CCC(=O)O1 (stereo partly specified)
IC50: 16 nM
